Legend:
liver cells = experiment: In vivo LNP delivery of firefly luciferase mRNA to liver, bioluminescent imaging (BLI); design: species or system BALB/C mice; settings: 0.5 mg/kg fLuciferase mRNA i.v., BLI at 4 hr; for Ave flux (p/s) n = 3: adult female BALB/C mice, LNP as in Example 66; for Mean Liver Luciferase Flux (p/s): LNP compositions of Table 25, adult female BALB/C, n=3
Protocol: Adult female BALB/C mice (n=3/group) were intravenously administered 0.5 mg/kg of 5′-CleanCap-fLuciferase mRNA (TriLink Biotech) formulated with LNP compositions as described in Example 66. One group of mice was treated with vehicle (PBS, Thermo Fisher Scientific, USA) as a negative control.
The location and extent of luciferase expression in treated and control mice were determined at 4 hr by bioluminescent imaging (BLI) of anesthetized mice using an IVIS Lumina in vivo imaging system (Perkin Elmer) according to the manufacturer's instructions. Briefly, mice were anesthetized using isoflurane in oxygen, and placed supine on a heated stage. Mice were then administered D-luciferin (Perkin-Elmer #122799) IP, and BLI was performed.
Adult female BALB/C mice (n=3/group) were intravenously administered 0.5 mg/kg of 5′-CleanCap-fLuciferase mRNA (TriLink Biotech) formulated with the LNP compositions shown in Table 25. One group of mice was treated with vehicle (PBS, Thermo Fisher Scientific, USA) as a negative control. […]

[1] = Physical characteristics of LNPs (particle size, PDI); assay type: physicochemical; settings: for PDI DNA / Particle Size (nm) DNA: LNP with Fluc DNA, compound/DOPE/Cholesterol/DMG-PEG2000 38/50/10.0/2.0, Lipid:DNA 45:1 (w/w); for PDI RNA / Particle Size (nm) RNA: LNP with Fluc mRNA, compound/DOPE/Cholesterol/DMG-PEG2000 41.44/45.85/10/2.7, Lipid:RNA 40:1 (w/w)
Protocol: LNP compositions of the present disclosure comprising exemplary compounds of Formula (I) were prepared by combining various percentages of an exemplary compound of Formula (I), the phospholipid DOPE, the structural lipid cholesterol (Chol) and 1,2-dimyristoyl-sn-glycerol methoxypolyethylene glycol (DMG-PEG2000; Avanti Polar Lipids, Alabaster, Alabama, USA).
Individual 25 mg/ml stock solutions were prepared by solubilizing the lipids in 200-proof HPLC-grade ethanol and stock solutions were stored at −80° C. until formulated. At the time of formulation, the lipid stock solutions were briefly allowed to equilibrate to room temp and then placed on a hot plate maintained at a temperature range of 50-55° C.
A 1 mg/ml solution of the desired mRNA or DNA to be incorporated into the LNPs was added to 150 mM sodium acetate buffer (pH 5.2) to form a stock solution and kept on ice. The aqueous mRNA or DNA was then added to the lipids as shown in Table 4 or 5 and hand-mixed vigorously with a single channel pipettor.
The resultant mRNA or DNA LNP compositions were then transferred to a Repligen Float-A-Lyzer dialysis device-having a molecular weight cut off (MWCO) of 8-10 kDa (Spectrum Chemical Mfg. Corp, CA, USA) and processed by dialysis against phosphate buffered saline (PBS) (dialysate: dialysis buffer volume at least 1:200 v/v), pH 7.4 overnight at 4° C. (or alternatively room temperature for at least 4 hours), to remove the 25% ethanol and achieve a complete buffer exchange. In some experiments the LNPs were further concentrated by in an Amicon® Ultra-4 centrifugal filter unit, MWCO-30 kDa (Millipore Sigma, USA) spun at ˜4100 x g in an ultracentrifuge. The mRNA and DNA LNPs were then stored at 4° C. until further use.
LNP compositions of the present disclosure comprising mRNA or DNA encoding firefly luciferase (hereafter “Fluc”; TriLink) and COMPOUNDS 5-49 were prepared as described in Example 61 by combining one of COMPOUNDS 5-49, the phospholipid DOPE, the structural lipid cholesterol (Chol) and 1,2-dimyristoyl-sn-glycerol methoxypolyethylene glycol (DMG-PEG2000) in the percentages presented in Tables 6 and 7:
The physical characteristics of the resulting LNPs were analyzed.
A 1 mg/ml solution of the 5′-CleanCap--fLuciferase mRNA (TriLink Biotech) to be incorporated into the LNPs was added to 150 mM sodium acetate buffer (pH 5.2) to form a stock solution and kept on ice. The lipid phase was mixed with the aqueous mRNA phase inside a microfluidic chip using a NanoAssemblr® instrument (Precision Nanosystems, Vancouver, BC, Canada) according to the manufacturer's instructions to form LNP compositions comprising encapsulated mRNAs.
The average particle size diameter of the LNPs was approximately 75-150 nm.

[2] = Body weight change of mice after LNP administration; assay type: in vivo, BALB/C mice; settings: for Ave weight change (gram) n = 3: 24 hrs after 0.5 mg/kg LNP encapsulating firefly luciferase mRNA, adult female BALB/C mice; for % Body Weight Change 24 hr: LNP compositions of Table 25, 0.5 mg/kg fLuciferase mRNA i.v., 24 hr post-administration vs baseline
Protocol: The mice above were also monitored for changes in body weight after LNP delivery. Mice were manually weighed on a scale before LNP dosage and then weighed 24 hrs after administration of 0.5 mg/kg of LNP article encapsulating Cleancap firefly luciferase mRNA. The average of weight change n=3 is reported below.
In addition, the body weight of mice treated with the LNP compositions of Table 25 was assessed prior to intravenous administration and twenty-four hours post-administration and the body weights at baseline and post-treatment were compared. The average percentage of body weight change for each group of mice treated with each LNP composition of Table 25 is shown in Table 28. […]

PDI DNA [1] | Particle Size (nm) DNA [1] | PDI RNA [1] | Particle Size (nm) RNA [1] | Compound | Ave flux (p/s) n = 3 (liver cells) | Ave weight change (gram) n = 3 [2] | Mean Liver Luciferase Flux (p/s) (liver cells) | % Body Weight Change 24 hr [2]
0.063 | 267.9 nm | 0.145 | 339.9 nm | CC(C)CCCC1CCC(C(=O)OCCOC(=O)CCN(CCC(=O)OCCOC(=O)C2CCC(CCCC(C)C)CC2)CCN(CCN(CCC(=O)OCCOC(=O)C2CCC(CCCC(C)C)CC2)CCC(=O)OCCOC(=O)C2CCC(CCCC(C)C)CC2)CCN(CCC(=O)OCCOC(=O)C2CCC(CCCC(C)C)CC2)CCC(=O)OCCOC(=O)C2CCC(CCCC(C)C)CC2)CC1 (centres unmarked) [Compound 31] | 2.24E+09 p/s | −4.10 gram | – | –
0.123 | 330.9 nm | 0.129 | 314.0 nm | CC(C)=CCC/C(C)=C/CCC1=CCC(C(=O)OCCOC(=O)CCN(CCCN2CCN(CCCN(CCC(=O)OCCOC(=O)C3CC=C(CC/C=C(\C)CCC=C(C)C)CC3)CCC(=O)OCCOC(=O)C3CC=C(CC/C=C(\C)CCC=C(C)C)CC3)CC2)CCC(=O)OCCOC(=O)C2CC=C(CC/C=C(\C)CCC=C(C)C)CC2)CC1 (centres unmarked) [Compound 9, ((3,3′,3″,3′″-((piperazine-1,4-diylbis(propane-3,1-diyl))bis(azanetriyl))tetrakis(propanoyl))tetrakis(oxy))tetrakis(ethane-2,1-diyl)tetrakis(4-((E)-4,8-dimethylnona-3,7-dien-1-yl)cyclohex-3-enecarboxylate)] | 1.77E+10 p/s | −3.03 gram | 4.62e10 p/s | +1.4%
0.129 | 287.7 nm | 0.145 | 293.3 nm | CC(C)CCCC(C)CCCC1CCC(C(=O)OCCOC(=O)CCN(CCCN(C)CCCN(CCC(=O)OCCOC(=O)C2CCC(CCCC(C)CCCC(C)C)CC2)CCC(=O)OCCOC(=O)C2CCC(CCCC(C)CCCC(C)C)CC2)CCC(=O)OCCOC(=O)C2CCC(CCCC(C)CCCC(C)C)CC2)CC1 (centres unmarked) [Compound 17] | 2.96E+10 p/s | −3.10 gram | – | –
0.141 | 255.5 nm | 0.176 | 330.9 nm | CC(C)=CCCC1=CCC(C(=O)OCCOC(=O)CCN(CCCN2CCN(CCCN(CCC(=O)OCCOC(=O)C3CC=C(CCC=C(C)C)CC3)CCC(=O)OCCOC(=O)C3CC=C(CCC=C(C)C)CC3)CC2)CCC(=O)OCCOC(=O)C2CC=C(CCC=C(C)C)CC2)CC1 (centres unmarked) [Compound 22] | 9.27E+09 p/s | −6.40 gram | 1.84e10 p/s | +1.2%
0.116 | 309 nm | 0.078 | 334.6 nm | CC(C)=CCCC1=CCC(C(=O)OCCN2CCN(CCOC(=O)C3CC=C(CCC=C(C)C)CC3)CC2)CC1 (centres unmarked) [Compound 46] | – | – | – | –
0.219 | 348.8 nm | 0.104 | 334.8 nm | CC(C)CCCC(C)CCCC1CCC(C(=O)OCCOC(=O)CCN(CCCCCCN(CCC(=O)OCCOC(=O)C2CCC(CCCC(C)CCCC(C)C)CC2)CCC(=O)OCCOC(=O)C2CCC(CCCC(C)CCCC(C)C)CC2)CCC(=O)OCCOC(=O)C2CCC(CCCC(C)CCCC(C)C)CC2)CC1 (centres unmarked) [Compound 14] | – | – | – | –
0.072 | 368.6 nm | 0.153 | 323.3 nm | CC(C)CCCC(C)CCCC1CCC(C(=O)OCCOC(=O)CCN(CCC(=O)OCCOC(=O)C2CCC(CCCC(C)CCCC(C)C)CC2)CCN(CCN(CCC(=O)OCCOC(=O)C2CCC(CCCC(C)CCCC(C)C)CC2)CCC(=O)OCCOC(=O)C2CCC(CCCC(C)CCCC(C)C)CC2)CCN(CCC(=O)OCCOC(=O)C2CCC(CCCC(C)CCCC(C)C)CC2)CCC(=O)OCCOC(=O)C2CCC(CCCC(C)CCCC(C)C)CC2)CC1 (centres unmarked) [Compound 18] | – | – | – | –
0.138 | 272.5 nm | 0.064 | 297.1 nm | CC(C)=CCC/C(C)=C/CCC1=CCC(C(=O)CCCN(CCO)CCOC(=O)C2CC=C(CC/C=C(\C)CCC=C(C)C)CC2)CC1 (centres unmarked) [Compound 39] | – | – | – | –
0.104 | 308.7 nm | 0.045 | 245.3 nm | CC(C)=CCCC1=CCC(C(=O)OCCN(CCO)CCOC(=O)C2CC=C(CCC=C(C)C)CC2)CC1 (centres unmarked) [Compound 49] | – | – | – | –
0.039 | 289.2 nm | 0.121 | 304.2 nm | CC(C)=CCCC1=CCC(C(=O)OCCN(C)CCOC(=O)C2CC=C(CCC=C(C)C)CC2)CC1 (centres unmarked) [Compound 42] | – | – | – | –
0.154 | 167 nm | 0.260 | 202.2 nm | CC(C)=CCC/C(C)=C/CCC1=CCC(C(=O)OCCOC(=O)CCN(CCC(=O)OCCOC(=O)C2CC=C(CC/C=C(\C)CCC=C(C)C)CC2)CCN2CCCCC2)CC1 (centres unmarked) [Compound 6, (E)-((3,3′-((2-(piperidin-1-yl)ethyl)azanediyl)bis(propanoyl))bis(oxy)) bis(ethane-2,1-diyl)bis(4-((E)-4,8-dimethylnona-3,7-dien-1-yl)cyclohex-3-enecarboxylate)] | – | – | – | –
0.206 | 268.3 nm | 0.102 | 296.9 nm | CC(C)=CCCC1=CCC(C(=O)OCCOC(=O)CCN(CCC(=O)OCCOC(=O)C2CC=C(CCC=C(C)C)CC2)CC(C)N(CCC(=O)OCCOC(=O)C2CC=C(CCC=C(C)C)CC2)CCC(=O)OCCOC(=O)C2CC=C(CCC=C(C)C)CC2)CC1 (centres unmarked) [Compound 21] | – | – | – | –
0.152 | 396.1 nm | 0.145 | 355.6 nm | CC(C)=CCC/C(C)=C/CCC1=CCC(C(=O)OCCOC(=O)CCN(CCC(=O)OCCOC(=O)C2CC=C(CC/C=C(\C)CCC=C(C)C)CC2)CCN(CCN(CCC(=O)OCCOC(=O)C2CC=C(CC/C=C(\C)CCC=C(C)C)CC2)CCC(=O)OCCOC(=O)C2CC=C(CC/C=C(\C)CCC=C(C)C)CC2)CCN(CCC(=O)OCCOC(=O)C2CC=C(CC/C=C(\C)CCC=C(C)C)CC2)CCC(=O)OCCOC(=O)C2CC=C(CC/C=C(\C)CCC=C(C)C)CC2)CC1 (centres unmarked) [Compound 11] | – | – | – | –
0.091 | 286.1 nm | 0.09 | 260.6 nm | CC(C)=CCC/C(C)=C/CCC1=CCC(C(=O)OCCN2CCN(CCOC(=O)C3CC=C(CC/C=C(\C)CCC=C(C)C)CC3)CC2)CC1 (centres unmarked) [Compound 36] | – | – | – | –
